In turn, `CC1=C(C(=O)O)N2C(=O)C(NC(=O)C(NC(=O)c3nn(-c4ccc(Cl)cc4)c(=O)[nH]c3=O)c3ccccc3)C2SC1` (centres undefined) had a logP of 4.91.

`CC1=C(C(=O)O)N2C(=O)C(NC(=O)C(NC(=O)c3nn(-c4ccc(F)c(Cl)c4)c(=O)[nH]c3=O)c3ccc(O)cc3)C2SC1` (centres undefined) yielded a logP of 3.1.

As to `CC1=C(C(=O)O)N2C(=O)C(NC(=O)C(NC(=O)c3nn(-c4ccc(Cl)cc4Cl)c(=O)[nH]c3=O)c3ccccc3)C2SC1` (centres undefined), the logP worked out at 4.97.

For `COc1ccc(-n2nc(C(=O)NC(C(=O)NC3C(=O)N4C(C(=O)O)=C(C)CSC34)c3ccccc3)c(=O)[nH]c2=O)cc1` (centres undefined), the logP is 3.87.

Consider `CC1=C(C(=O)O)N2C(=O)[C@@H](NC(=O)[C@H](NC(=O)c3nn(-c4ccccc4)c(=O)[nH]c3=O)c3ccc(O)cc3)[C@H]2SC1`, for which the logP worked out at 1.26.

The molecule `CC(=O)c1ccc(-n2nc(C(=O)NC(C(=O)NC3C(=O)N4C(C(=O)O)=C(C)CSC34)c3cccc(O)c3)c(=O)[nH]c2=O)cc1` (centres undefined) gave a logP of -0.04.

`CC1=C(C(=O)O)N2C(=O)C(NC(=O)C(NC(=O)c3nn(-c4ccc(C)cc4)c(=O)[nH]c3=O)c3cccc(O)c3)C2SC1` (centres undefined) showed a logP of 2.53.

Regarding `CCOc1ccc(-n2nc(C(=O)NC(C(=O)NC3C(=O)N4C(C(=O)O)=C(C)CSC34)c3ccccc3)c(=O)[nH]c2=O)cc1` (centres undefined), the logP worked out at 5.16.

`CC1=C(C(=O)O)N2C(=O)C(NC(=O)C(NC(=O)c3nn(-c4ccc(Cl)cc4Cl)c(=O)[nH]c3=O)c3ccc(O)cc3)C2SC1` (centres undefined) showed a logP of 3.08.

With `CC(=O)c1ccc(-n2nc(C(=O)NC(C(=O)NC3C(=O)N4C(C(=O)O)=C(C)CSC34)c3ccccc3)c(=O)[nH]c2=O)cc1` (centres undefined), the logP stood at 2.71.

In the case of `CC1=C(C(=O)O)N2C(=O)C(NC(=O)C(NC(=O)c3nn(-c4ccc([N+](=O)[O-])cc4)c(=O)[nH]c3=O)c3ccccc3)C2SC1` (centres undefined), the logP was 3.15.

The molecule `CC1=C(C(=O)O)N2C(=O)C(NC(=O)C(NC(=O)c3nn(-c4ccccc4)c(=O)[nH]c3=O)c3ccccc3)C2SC1` (centres undefined) came in with a logP of 3.19.

As for `CC1=C(C(=O)O)N2C(=O)C(NC(NC(=O)c3nn(-c4ccc(S(N)(=O)=O)cc4)c(=O)[nH]c3=O)c3ccc(O)cc3)C2SC1` (centres undefined), the logP was -0.39.

As for `CC1=C(C(=O)O)N2C(=O)C(NC(=O)C(NC(=O)c3nn(-c4ccc(C)cc4)c(=O)[nH]c3=O)c3ccccc3)C2SC1` (centres undefined), the logP is 4.8.

The values above are taken from the SangsterLogP compilation.
